Among the test systems are K562; MOLT-4; EKVX; NCI/ADR-RES; UACC-62; SK-MEL-2; HCT-15; CAKI-1; MDA-N; 786-0; SNB-19; KM-20L2; RPMI-8226; LOX IMVI; OVCAR-5; MCF7; SF-268; U-251; CCRF-CEM; BT-549.
What all share (assay): NCI tumour cell line growth inhibition, 48 h

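Dose response: 5 concentrations. Exposure: 48 h. Format: 96-well plates. Endpoint: linear interpolation; highest concentration if not reached. At the GI50, growth is halved.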 Activity calls are given as the source filed them. Cut-off read from the data, not from the text of the source: active = GI50 up to about 1.1 µM and inactive = higher. Some results are limits rather than exact numbers.

As to `Cc1cc2c(s1)C(=O)c1sccc1C2=O`, the GI50 with K562 is 1.91 µM (inactive); in the assay on MOLT-4, 2.3 µM (inactive); in the assay with EKVX it was 1.84 µM (inactive); with NCI/ADR-RES, 0.459 µM (active); in the assay with UACC-62 it was 0.24 µM (active); in the assay on SK-MEL-2, 0.385 µM (active). Further, the GI50 in the assay with HCT-15 was 1.19 µM; with CAKI-1 it was 1.75 µM (inactive); with MDA-N, 0.171 µM (active); in the assay on 786-0, 1.83 µM (inactive); in the assay with SNB-19, 1.66 µM (inactive); in the assay with KM-20L2, 2.46 µM (inactive). Moreover, the GI50 with RPMI-8226 was 1.88 µM (inactive); with LOX IMVI it was 0.152 µM (active); with OVCAR-5, 1.86 µM (inactive); in the assay with MCF7, 1.26 µM (inactive); in the assay on SF-268, 0.762 µM (active); with U-251, 1.29 µM (inactive).

Regarding `OCCCNc1ccnc2cc(Cl)ccc12`, the GI50 is > 100 µM (inactive) in the assay on K562; > 100 µM (inactive) in the assay with MOLT-4; > 100 µM (inactive) in the assay on EKVX; > 100 µM (inactive) in the assay on UACC-62; > 100 µM (inactive) in the assay with SK-MEL-2; over 100 µM in the assay on HCT-15. Moreover, the GI50 in the assay with CAKI-1, in the assay with 786-0, in the assay with SNB-19, in the assay on KM-20L2, in the assay with RPMI-8226 and with LOX IMVI was > 100 µM (inactive) throughout. Further, the GI50 with OVCAR-5, with CCRF-CEM, in the assay with SF-268 and with U-251 was > 100 µM (inactive) each time.

Consider `CN1CCC23c4c5ccc(O)c4OC2C(=NN=C2CCC4(O)C6Cc7ccc(O)c8c7C4(CCN6C)C2O8)CCC3(O)C1C5` (stereo unspecified), for which the GI50 in the assay with K562 was > 100 µM (inactive); in the assay with MOLT-4, > 100 µM (inactive); with EKVX it was > 100 µM (inactive); in the assay with UACC-62, > 100 µM (inactive); in the assay with SK-MEL-2, > 100 µM (inactive); in the assay with HCT-15, over 100 µM. For the same molecule, the GI50 in the assay on CAKI-1, in the assay with 786-0, with SNB-19, in the assay on KM-20L2, in the assay with RPMI-8226 and in the assay with LOX IMVI was > 100 µM (inactive) each time. Moreover, the GI50 with OVCAR-5, in the assay with CCRF-CEM, in the assay with SF-268 and in the assay on U-251 was > 100 µM (inactive) each time.

Regarding `C[C@@H]1[C@@H]2[C@@H](C=C3C4CCC5Cc6nc7c(nc6C[C@@]5(C)C4C[C@H](O)[C@]32CO)CC2CCC3C4=C[C@H]5O[C@@]6(OC(C)(CO)C[C@@H]6O)[C@H](C)[C@@]5(O)[C@]4(C)[C@@H](O)CC3[C@]2(C)C7)O[C@]12CCC(C)(C)O2` (stereo partly specified), the GI50 in the assay on K562 is 0.0164 µM (active); with MOLT-4, 0.00505 µM (active); with EKVX it was 0.0766 µM (active); in the assay with UACC-62, 0.0802 µM (active); with SK-MEL-2, 0.0189 µM (active); in the assay with HCT-15, 0.135 µM. The GI50 in the assay with CAKI-1 is 0.021 µM (active); in the assay on 786-0, 0.00262 µM (active); in the assay with SNB-19, 0.111 µM (active); in the assay on KM-20L2 it was 0.0233 µM (active); in the assay with RPMI-8226, 0.00144 µM (active); in the assay with OVCAR-5, 0.488 µM (active). Further, the GI50 with CCRF-CEM is 0.0117 µM (active); in the assay on MCF7, 0.00075 µM (active); with SF-268, 0.0208 µM (active); in the assay on U-251, 0.0053 µM (active).

For the molecule `CC(=O)O[C@H]1C(N(C)C(=O)c2ccccc2)CC[C@]2(C)C3CC[C@@]4(C)C(CC(O)[C@@H]4C(C)N(C)C)[C@@H]3CCC12` (stereo partly specified), the GI50 is > 100 µM (inactive) in the assay on K562; > 100 µM (inactive) with MOLT-4; > 100 µM (inactive) in the assay on EKVX; > 100 µM (inactive) with UACC-62; > 100 µM (inactive) with SK-MEL-2; over 100 µM with HCT-15. For the same molecule, the GI50 in the assay with CAKI-1, with 786-0, in the assay on SNB-19, in the assay with KM-20L2, in the assay on RPMI-8226 and in the assay on LOX IMVI was > 100 µM (inactive) each time. In addition, the GI50 in the assay with OVCAR-5, in the assay with CCRF-CEM, in the assay with SF-268 and in the assay on U-251 was > 100 µM (inactive) in each case.

On to `O=C1/C(=C(\Nc2ccccc2)c2ccccc2)C=NN1c1ccccc1`, for which the GI50 with K562 was 72.8 µM (inactive); in the assay with MOLT-4, 29.3 µM (inactive); with EKVX, > 100 µM (inactive); with UACC-62, > 100 µM (inactive); in the assay with SK-MEL-2, > 100 µM (inactive); in the assay on HCT-15 it was over 100 µM. Besides, the GI50 with CAKI-1 is > 100 µM (inactive); in the assay with 786-0 it was > 100 µM (inactive); in the assay with SNB-19, > 100 µM (inactive); in the assay with KM-20L2, > 100 µM (inactive); in the assay on RPMI-8226, 40.8 µM (inactive); in the assay with LOX IMVI, > 100 µM (inactive). For the same molecule, the GI50 in the assay with OVCAR-5, in the assay with CCRF-CEM, in the assay with SF-268 and with U-251 was > 100 µM (inactive) throughout.

Take `O=C(CCN1CCC(CCO)CC1)Nc1ccc2c(c1)C(=O)c1ccc(NC(=O)CCN3CCC(CCO)CC3)cc1C2=O`: the GI50 in the assay on K562 is 8.05 µM (inactive); with MOLT-4, 4.13 µM (inactive); in the assay on EKVX it was 32.5 µM (inactive); in the assay with UACC-62 it was 9.04 µM (inactive); in the assay on SK-MEL-2, 3.76 µM (inactive); in the assay on HCT-15, 27.7 µM. Also, the GI50 with CAKI-1 is 34.8 µM (inactive); with 786-0, 6.7 µM (inactive); in the assay with SNB-19, 16.9 µM (inactive); in the assay with KM-20L2, 27.9 µM (inactive); with RPMI-8226 it was 25.9 µM (inactive); in the assay on LOX IMVI it was 8.39 µM (inactive). The GI50 in the assay with OVCAR-5 was > 100 µM (inactive); in the assay on CCRF-CEM, 4.22 µM (inactive); in the assay with SF-268 it was 11.3 µM (inactive); in the assay on U-251, 9.1 µM (inactive).

Take `C=CCNC(=O)NCCCC(NC(C)=O)C(=O)NCc1ccccc1` (stereo unspecified): the GI50 in the assay on K562 is > 100 µM (inactive); with MOLT-4, > 100 µM (inactive); with EKVX it was > 100 µM (inactive); in the assay on UACC-62 it was > 100 µM (inactive); in the assay with SK-MEL-2, > 100 µM (inactive); in the assay on HCT-15, over 100 µM. Moreover, the GI50 in the assay with CAKI-1, in the assay with 786-0, in the assay on SNB-19, with KM-20L2, in the assay with RPMI-8226 and in the assay with LOX IMVI was > 100 µM (inactive) in each case. Also, the GI50 with OVCAR-5, in the assay with CCRF-CEM, with SF-268 and with U-251 was > 100 µM (inactive) each time.

As for `O=C(Nc1cccc(C(F)(F)F)c1)C(=O)C(C(=O)c1ccc2ccccc2c1)C1OC(=O)c2ccccc21` (stereo unspecified), the GI50 was 5.38 µM (inactive) in the assay on K562; 1.82 µM (inactive) with MOLT-4; 14.5 µM (inactive) in the assay with EKVX; 7.53 µM (inactive) with UACC-62; 14.3 µM (inactive) with BT-549; 8.57 µM (inactive) with SK-MEL-2. Moreover, the GI50 in the assay with HCT-15 is 8.13 µM; with CAKI-1, 12.4 µM (inactive); in the assay with 786-0 it was 4.21 µM (inactive); in the assay with SNB-19, 6.25 µM (inactive); in the assay on KM-20L2, 15.8 µM (inactive); in the assay on RPMI-8226, 3.68 µM (inactive). Also, the GI50 was 4.23 µM (inactive) in the assay on LOX IMVI; 14.3 µM (inactive) with OVCAR-5; 3.18 µM (inactive) in the assay on CCRF-CEM; 7.16 µM (inactive) in the assay with MCF7; 5.05 µM (inactive) in the assay on SF-268; 4.08 µM (inactive) in the assay on U-251.

Turning to `Nc1c(-c2ccc(Cl)cc2Cl)[n+]([O-])c2ccccc2[n+]1[O-]`, the GI50 in the assay with K562 was > 100 µM (inactive); with MOLT-4 it was > 100 µM (inactive); in the assay with EKVX it was > 100 µM (inactive); in the assay with UACC-62, > 100 µM (inactive); in the assay on SK-MEL-2 it was > 100 µM (inactive); in the assay with HCT-15, over 100 µM. Also, the GI50 in the assay with CAKI-1, in the assay on 786-0, in the assay with SNB-19, in the assay with KM-20L2, with RPMI-8226 and in the assay with LOX IMVI was > 100 µM (inactive) in each case. Besides, the GI50 with OVCAR-5, in the assay with CCRF-CEM, in the assay with SF-268 and in the assay on U-251 was > 100 µM (inactive) throughout.

Turning to `COc1cc2c(c(OC)c1O)-c1ccc(SC)c(=O)cc1C(NC(C)=O)CC2` (stereo unspecified), the GI50 is < 0.01 µM (active) in the assay on K562; < 0.0122 µM (active) in the assay on MOLT-4; 39.7 µM (inactive) in the assay with EKVX; < 0.0119 µM (active) in the assay on UACC-62; < 0.01 µM (active) with SK-MEL-2; 1.06 µM in the assay on HCT-15. The GI50 in the assay on CAKI-1 was 0.285 µM (active); in the assay on 786-0 it was 0.0545 µM (active); in the assay on SNB-19, 0.019 µM (active); in the assay on KM-20L2, 0.0129 µM (active); with RPMI-8226, < 0.0121 µM (active); in the assay with LOX IMVI it was < 0.01 µM (active). For the same molecule, the GI50 was 4.83 µM (inactive) with OVCAR-5, < 0.01 µM (active) in the assay on CCRF-CEM, < 0.0107 µM (active) with SF-268 and < 0.0146 µM (active) with U-251.

With `CC(C)c1cccc(C(C)C)c1/N=C(/N)C#N`, the GI50 in the assay on K562 is 25.4 µM (inactive); in the assay with MOLT-4, > 45.9 µM (inactive); with EKVX it was > 100 µM (inactive); in the assay on UACC-62 it was > 50.2 µM (inactive); in the assay on SK-MEL-2 it was > 90.6 µM (inactive); with HCT-15 it was 37.2 µM. Also, the GI50 in the assay on CAKI-1 is > 100 µM (inactive); in the assay on 786-0 it was > 43.6 µM (inactive); in the assay with SNB-19 it was > 100 µM (inactive); with KM-20L2, > 100 µM (inactive); in the assay on RPMI-8226, 34.4 µM (inactive); in the assay with LOX IMVI, 25.2 µM (inactive). Also, the GI50 is > 100 µM (inactive) with OVCAR-5, 30.5 µM (inactive) with CCRF-CEM, > 100 µM (inactive) with SF-268 and 34 µM (inactive) in the assay on U-251.

The values are drawn from ChEMBL document CHEMBL1201862, “PubChem BioAssay data set” (2004).
